This note sets out measurements from ChEMBL document CHEMBL5500412, “Discovery of Highly Selective, Potent, Covalent, and Orally Bioavailable Factor XIIa Inhibitors for the Treatment of Thrombo-Inflammation” (J Med Chem, 2024).

Molecules are shown by their SMILES. Activity calls are given as the source filed them. The calls are words filed in the database; no cut-off is given here.

In data set [1] the target is T1, Coagulation factor XII (Homo sapiens, UniProt P00748).
T1 sequence (P00748 whole entry): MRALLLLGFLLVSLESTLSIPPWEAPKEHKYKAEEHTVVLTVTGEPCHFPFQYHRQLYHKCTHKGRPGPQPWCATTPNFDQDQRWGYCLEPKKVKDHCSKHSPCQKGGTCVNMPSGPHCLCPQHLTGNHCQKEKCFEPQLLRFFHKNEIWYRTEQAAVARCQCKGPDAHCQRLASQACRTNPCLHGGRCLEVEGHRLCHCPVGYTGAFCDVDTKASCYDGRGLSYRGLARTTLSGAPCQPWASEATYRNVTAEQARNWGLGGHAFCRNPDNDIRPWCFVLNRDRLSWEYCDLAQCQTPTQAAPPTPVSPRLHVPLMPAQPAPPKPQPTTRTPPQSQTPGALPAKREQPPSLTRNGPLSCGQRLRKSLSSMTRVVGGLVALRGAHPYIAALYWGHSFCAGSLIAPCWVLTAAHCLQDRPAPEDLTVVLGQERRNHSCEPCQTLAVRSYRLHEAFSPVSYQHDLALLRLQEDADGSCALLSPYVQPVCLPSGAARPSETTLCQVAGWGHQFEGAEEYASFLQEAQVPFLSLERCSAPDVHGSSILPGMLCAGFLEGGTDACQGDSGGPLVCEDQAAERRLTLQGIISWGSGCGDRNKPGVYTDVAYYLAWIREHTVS
Put plainly: Inhibition of FXIIa (unknown origin) using H-D-Pro-Phe-Arg-pNA as substrate incubated for 20 mins followed by substrate addition by spectrophotometric analysis.

Data set [2] is described as follows: Selectivity index, ratio of IC50 for thrombin (unknown origin) to IC50 for FXIIa (unknown origin).
A short description of data set [3]: Selectivity index, ratio of IC50 for FXIa (unknown origin) to IC50 for FXIIa (unknown origin).
The nature of data set [4]: Selectivity index, ratio of IC50 for chymotrypsin (unknown origin) to IC50 for FXIIa (unknown origin).
Data set [5] deals with Smooth muscle cell. Put plainly: Ant-icalcification activity in human aortic Smooth muscle cell at 10 uM measured after 14 days with replacement of fresh medium for every 2 to 3 days by Alizarin red S staining based analysis. The format is functional. The conditions noted are these: time 14.0 day.
The subject of data set [6] is Mus musculus. The data set is described as follows: Antiinflammatory activity in carrageenan-induced thrombosis in male BALB/c mouse model assessed as reduction in IL-1 beta level administered as oral dose by ELISA method. The format is functional, organism-based. Conditions: dose 10-30 mg/kg. On the technique in general: In an ELISA, binding on a coated surface is turned into a signal by an enzyme label.

Data set [7] concerns Mus musculus. The data set is described as follows: Antiinflammatory activity in carrageenan-induced thrombosis in male BALB/c mouse model assessed as reduction in IL-6 level administered as oral dose by ELISA method. Conditions: dose 10-30 mg/kg. It is filed as functional, organism-based.
The nature of data set [8]: Stability of the compound in water under […] condition at pH 11 measured after 48 hrs. It is filed as physicochemical. The conditions noted are these: buffer, pH 11, 48 h.
Data set [9] addresses T2, Coagulation factor XII (Homo sapiens) (UniProt P00748).
T2 sequence (whole entry): T1 sequence (P00748 whole entry)
The data set is described as follows: Covalent inhibition of FXIIa (unknown origin) at 20 to 40 nM measured after 10 mins. The conditions noted are these: dose 20-40 nM.

For data set [10], the target named is T2, Coagulation factor XII (Homo sapiens). Put plainly: Binding affinity to FXIIa (unknown origin) assessed as inactivation rate using H-D-Pro-Phe-Arg-pNA.2HCl as substrate by spectrophotometric analysis.
The target is the same in data set [11]. The data set is described as follows: Inhibition of FXIIa (unknown origin) using H-D-Pro-Phe-Arg-pNA as substrate preincubated for 20 mins followed by 100 fold dilution upto 120 mins then substrate addition for 60 mins by jump dilution assay. The conditions noted are these: time <= 200.0 min.
Data set [12] shares this target. Put plainly: Binding affinity to FXIIa (unknown origin) assessed as Kinact/Ki using H-D-Pro-Phe-Arg-pNA.2HCl as substrate by spectrophotometric analysis.
The nature of data set [13]: Tmax in BALB/c mouse at 1 mg/kg, iv measured upto 24 hrs by LC-MS/MS analysis. It is filed as ADME, organism-based. Conditions: in vivo.
A short description of data set [14]: Clearance in BALB/c mouse at 1 mg/kg, iv measured upto 24 hrs by LC-MS/MS analysis. It is filed as ADME, organism-based. The conditions noted are these: in vivo.
The nature of data set [15]: Apparent volume of distribution in BALB/c mouse at 1 mg/kg, iv measured upto 24 hrs by LC-MS/MS analysis. Conditions: in vivo, read-out: Vz. The format is ADME, organism-based.
A short description of data set [16]: AUC (0 to infinity) in BALB/c mouse at 1 mg/kg, iv measured upto 24 hrs by LC-MS/MS analysis. It is filed as ADME, organism-based. The conditions noted are these: in vivo.
Data set [17] can be described thus: MRT (0 to infinity) in BALB/c mouse at 1 mg/kg, iv measured upto 24 hrs by LC-MS/MS analysis. It is filed as ADME, organism-based. Conditions: in vivo.
Data set [18] is described as follows: Half life in BALB/c mouse at 5 mg/kg, po measured upto 24 hrs by LC-MS/MS analysis. It is filed as ADME, organism-based. The conditions noted are these: in vivo.
Data set [19] is described as follows: AUC (0 to infinity) in BALB/c mouse at 5 mg/kg, po measured upto 24 hrs by LC-MS/MS analysis. Conditions: in vivo. The format is ADME, organism-based.
The nature of data set [20]: Oral bioavailability in BALB/c mouse at 5 mg/kg measured upto 24 hrs by LC-MS/MS analysis. The format is ADME, organism-based. Conditions: in vivo.
For data set [21], the system named is Mus musculus. The data set is described as follows: Antiinflammatory activity in carrageenan-induced thrombosis in male BALB/c mouse model assessed as reduction in IL-1 beta level at 10 to 30 mg/kg, po by ELISA method. The format is functional, organism-based. The conditions noted are these: dose 10-30 mg/kg.
The test system of data set [22] is Mus musculus. Put plainly: Antiinflammatory activity in carrageenan-induced thrombosis in male BALB/c mouse model assessed as reduction in IL-6 level at 10 to 30 mg/kg, po by ELISA method. Conditions: dose 10-30 mg/kg. It is filed as functional, organism-based.
A short description of data set [23]: Toxicity in BALB/c mouse assessed as prolongation of bleeding time at 60 mg/kg, po measured after 90 mins. The format is organism-based. Conditions: in vivo, 1.5 h.
A short description of data set [24]: Toxicity in BALB/c mouse assessed as effect on heart at 60 to 100 mg/kg, po measured after 14 days by H and E staining based analysis. It is filed as organism-based. The conditions noted are these: in vivo, 336 h, dose 60-100 mg/kg, time 14 day.
Data set [25] can be described thus: Toxicity in BALB/c mouse assessed as effect on liver at 60 to 100 mg/kg, po measured after 14 days by H and E staining based analysis. It is filed as organism-based. The conditions noted are these: in vivo, 336 h, dose 60-100 mg/kg, time 14 day.
A short description of data set [26]: Toxicity in BALB/c mouse assessed as effect on spleen at 60 to 100 mg/kg, po measured after 14 days by H and E staining based analysis. It is filed as organism-based. The conditions noted are these: in vivo, 336 h, dose 60-100 mg/kg, time 14 day.
Data set [27] can be described thus: Toxicity in BALB/c mouse assessed as effect on kidney at 60 to 100 mg/kg, po measured after 14 days by H and E staining based analysis. It is filed as organism-based. The conditions noted are these: in vivo, 336 h, dose 60-100 mg/kg, time 14 day.
Data set [28] is described as follows: Toxicity in BALB/c mouse assessed as effect on ALT level in serum at 60 to 100 mg/kg, po measured after 14 days. The conditions noted are these: in vivo, 336 h, dose 60-100 mg/kg, time 14 day. It is filed as organism-based.
The nature of data set [29]: Toxicity in BALB/c mouse assessed as effect on UA level in serum at 60 to 100 mg/kg, po measured after 14 days. The format is organism-based. The conditions noted are these: in vivo, 336 h, dose 60-100 mg/kg, time 14 day.
Data set [30] in a line: Toxicity in BALB/c mouse assessed as effect on UREA level in serum at 60 to 100 mg/kg, po measured after 14 days. It is filed as organism-based. Conditions: in vivo, 336 h, dose 60-100 mg/kg, time 14 day.
Data set [31] in a line: Toxicity in BALB/c mouse assessed as effect on LDH level in serum at 60 to 100 mg/kg, po measured after 14 days. It is filed as organism-based. The conditions noted are these: in vivo, 336 h, dose 60-100 mg/kg, time 14 day.
Data set [32] is described as follows: Toxicity in BALB/c mouse assessed as effect on HBDH level in serum at 60 to 100 mg/kg, po measured after 14 days. It is filed as organism-based. The conditions noted are these: in vivo, 336 h, dose 60-100 mg/kg, time 14 day.

Regarding `CC(C)N1CCN(c2ccc(C(=O)n3nc(-c4ccccn4)nc3N)c3ccccc23)CC1`, the IC50 – broadly, the concentration at which inhibition is half-maximal – in [1] was 37 nM. Also, the Ratio IC50 in data set [2] was 910; in data set [3], over 670; in data set [4], over 670. Also, the result in data set [5] was Active. The Activity entry in data set [6] and in [7] was “Dose-Dependent Effect” in each case. In addition, the Stability result in data set [8] is “Stable”.

On to `CC(C)N1CCCN(c2ccc(C(=O)n3nc(-c4ccccn4)nc3N)c3ccccc23)CC1`, for which the Ratio IC50 is 210 in data set [2], over 1190 in data set [3] and over 1190 in [4]. The inhibition entry in [9] is “Active”. In addition, the Kinact in data set [10] is 0.027 min⁻¹. Besides, the inhibition result in [11] was “inactive”. Besides, the K in data set [12] is 2.37 10^6/M/min. The Tmax (in general, the time at which the peak concentration occurs) in data set [13] was found to be 0.39 h. Further, the CL in data set [14] came to 1270 mL/min/kg. Further, the Vd in data set [15] was 105 L/kg. The values for the AUC(0-inf) in data set [16] and in data set [19] were 13.3 ng·h/mL and 17.8 ng·h/mL, respectively. For the same compound, in data set [17], the MRT inf (in general, a mean duration of stay, worked out from the concentration-time curve) worked out at 1.58 h. Besides, the half-life – broadly, how long it takes for the measured level to halve – in data set [18] is 1.71 h. Moreover, the bioavailability (usually dose-corrected exposure relative to a reference, in per cent) in data set [20] came out at 28.2%. Besides, the result in data set [21] and in data set [22] was Active. Also, the Activity entry in data set [23], in [24], in [25], in data set [26], in data set [27] and in data set [28] was “Non-Toxic” each time. Further, the Activity result in [29], in [30], in data set [31] and in [32] was “Non-Toxic” throughout. Further, the Stability result in data set [8] was “Stable”.
